This test deals with 292921-168-R-J2-PDC KRAS tumor spheroid viability. Nature of the test: Anticancer human tumor 292921-168-R-J2-PDC patient-derived pancreatic carcinoma cell line growth inhibition [KRAS2]. To be noted: spheroids with HUVEC and MSC; for viability, T/C: stronger effect = lower value. Summed up: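 Combination screen of spheroid viability in tumor-cell co-cultures with endothelial (HUVEC) and mesenchymal stem cell stroma. Each agent was tested in half-log dilutions, topping at clinical Cmax or at 10 microM without a known Cmax.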

Where [1] appears, read: curve of first compound, second compound 0.1 µM.
Where [2] appears, read: curve of first compound, second compound 0.316 µM.
Setting [3] is: curve of first compound, second compound 1 µM.
Setting [4] is: curve of first compound, second compound 3.16 µM.
The mark [5] stands for this setting: curve of first compound, second compound 10 µM.
The mark [6] stands for this setting: second compound 0.1 µM, first compound 0.0316 µM.
Where [7] appears, read: second compound 0.1 µM, first compound 0.1 µM.
Where [8] appears, read: second compound 0.316 µM, first compound 0.0316 µM.
[9] abbreviates: second compound 0.316 µM, first compound 0.1 µM.
[10] abbreviates: second compound 1 µM, first compound 0.0316 µM.
Setting [11] is: second compound 1 µM, first compound 0.1 µM.
[12] abbreviates: second compound 3.16 µM, first compound 0.0316 µM.
[13] abbreviates: second compound 3.16 µM, first compound 0.1 µM.
Where [14] appears, read: second compound 10 µM, first compound 0.0316 µM.
Where [15] appears, read: second compound 10 µM, first compound 0.1 µM.

Structures are written as SMILES. Where “and” joins values, the source holds several entries; their conditions need not be identical. Equal entries are not always repeated. A value given as a limit tells only on which side of the number the result lay.
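Further: drug exposure lasted seven days after spheroids formed for three days.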
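Wherever viability, T/C is given: percent of DMSO vehicle control viability which is 100%.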

For orientation: viability, T/C means the ratio of treated to control. By IC50 is commonly meant the concentration needed to halve the response being measured. On to `CC(C)NCC(C(=O)N1CCN(c2ncnc3c2C(C)CC3O)CC1)c1ccc(Cl)cc1` (stereo not given), for which the viability, T/C (compound 0.0316 µM) was 93.8% [middle of 5 runs]; the viability, T/C (compound 0.1 µM) was 88.5% [middle of 5 runs]; the viability, T/C (compound 0.316 µM) was 83.5% [middle of 5 runs]; the viability, T/C (compound 1 µM) was 83.1% [middle of 5 runs]; the viability, T/C (compound 3.16 µM) was 76.5% [middle of 5 runs]; the viability, T/C (compound 10 µM) is 51.1% [middle of 5 runs]. The concentration for half-maximal inhibition (IC50) (curve of compound) is > 10000 nM and 9740 nM.
As to `COc1cc2nccc(Oc3ccc(NC(=O)C4(C(=O)Nc5ccc(F)cc5)CC4)cc3)c2cc1OC`, the viability, T/C is 104% (3×) and 112% and 103% (compound 0.0316 µM); 99.3% [middle of 5 runs] (compound 0.1 µM); 96.6% [middle of 5 runs] (compound 0.316 µM); 33.9% [middle of 5 runs] (compound 3.16 µM); 19.6% [middle of 5 runs] (compound 10 µM). For the setting “curve of compound”, the IC50 is 2.1 µM [middle of 5 runs].
As to `Cn1ncnc1[C@H]1c2n[nH]c(=O)c3cc(F)cc(c23)N[C@@H]1c1ccc(F)cc1` + COc1cc2nc(C)nc(NC(C)c3cc(N)cc(C(F)(F)F)c3)c2cc1OC1CCOC1, the IC50 reads like this: under setting [1], over 100 nM; under setting [2], over 100 nM; under setting [3], over 100 nM; under setting [4], 37.3 nM; under setting [5], under 0.316 nM. For the same compound, the viability, T/C was 93.5% (second compound 0.1 µM, first compound 0.000316 µM); 92.1% (second compound 0.1 µM, first compound 0.001 µM); 85.8% (second compound 0.1 µM, first compound 0.00316 µM); 85.7% (second compound 0.1 µM, first compound 0.01 µM); 68.6% under setting [6]; 60.5% under setting [7]. For the same compound, the viability, T/C is, setting by setting: (second compound 0.316 µM, first compound 0.000316 µM) 84.2%; (second compound 0.316 µM, first compound 0.001 µM) 87%; (second compound 0.316 µM, first compound 0.00316 µM) 84.8%; (second compound 0.316 µM, first compound 0.01 µM) 84.4%; under setting [8], 70.3%; under setting [9], 64.3%. Also, the viability, T/C reads like this: (second compound 1 µM, first compound 0.000316 µM) 84%; (second compound 1 µM, first compound 0.001 µM) 84.9%; (second compound 1 µM, first compound 0.00316 µM) 74.9%; (second compound 1 µM, first compound 0.01 µM) 73.3%; under setting [10], 69.6%; under setting [11], 57.4%. For the same compound, the viability, T/C runs as follows: (second compound 3.16 µM, first compound 0.000316 µM) 63.5%; (second compound 3.16 µM, first compound 0.001 µM) 60.1%; (second compound 3.16 µM, first compound 0.00316 µM) 56.4%; (second compound 3.16 µM, first compound 0.01 µM) 57.7%; under setting [12], 52.1%; under setting [13], 42%. The viability, T/C is, setting by setting: (second compound 10 µM, first compound 0.000316 µM) 26.1%; (second compound 10 µM, first compound 0.001 µM) 27.6%; (second compound 10 µM, first compound 0.00316 µM) 30.6%; (second compound 10 µM, first compound 0.01 µM) 22.6%; under setting [14], 23.6%; under setting [15], 23.9%.
On to `Cn1ncnc1[C@H]1c2n[nH]c(=O)c3cc(F)cc(c23)N[C@@H]1c1ccc(F)cc1`, for which the viability, T/C is 99.3% [middle of 5 runs] (compound 0.000316 µM); 99.4% [middle of 5 runs] (compound 0.001 µM); 93.5% [middle of 5 runs] (compound 0.00316 µM); 89.9% [middle of 5 runs] (compound 0.01 µM); 84.1% [middle of 5 runs] (compound 0.0316 µM); 74.5% [middle of 5 runs] (compound 0.1 µM). Besides, the IC50 (curve of compound) was over 100 nM.
On to `Cn1nccc1Nc1nccc(-c2cc3c(s2)C(C)(C)N(CCN2CCOCC2)C3=O)n1` + CNCc1ccccc1-c1csc(C(C)Nc2nc(C)nc3cc(OC)c(OC)cc23)c1, for which the IC50 is, setting by setting: under setting [1], 83.9 nM; under setting [2], 66.6 nM; under setting [3], under 31.6 nM; under setting [4], under 31.6 nM; under setting [5], under 31.6 nM. The viability, T/C by setting is: under setting [6], 73.9%; under setting [7], 45.7%; (second compound 0.1 µM, first compound 0.316 µM) 19%; (second compound 0.1 µM, first compound 1 µM) 12.3%; (second compound 0.1 µM, first compound 3.16 µM) 10.2%; (second compound 0.1 µM, first compound 10 µM) 10.2%. The viability, T/C under setting [8] is 68.8%; the viability, T/C under setting [9] was 39.7%; the viability, T/C (second compound 0.316 µM, first compound 0.316 µM) is 18.6%; the viability, T/C (second compound 0.316 µM, first compound 1 µM) was 10.9%; the viability, T/C (second compound 0.316 µM, first compound 3.16 µM) was 9.74%; the viability, T/C (second compound 0.316 µM, first compound 10 µM) was 10.6%. Further, the viability, T/C is 47.1% under setting [10]; 30.1% under setting [11]; 14.5% (second compound 1 µM, first compound 0.316 µM); 11.1% (second compound 1 µM, first compound 1 µM); 8.76% (second compound 1 µM, first compound 3.16 µM); 6.3% (second compound 1 µM, first compound 10 µM). In addition, the viability, T/C is 0.09% under setting [12]; 0.29% under setting [13]; 0.03% (second compound 3.16 µM, first compound 0.316 µM); 0.03% (second compound 3.16 µM, first compound 1 µM); 0.03% (second compound 3.16 µM, first compound 3.16 µM); 0.11% (second compound 3.16 µM, first compound 10 µM). For the same compound, the viability, T/C by setting is: under setting [14], 0.08%; under setting [15], 0.09%; (second compound 10 µM, first compound 0.316 µM) 0.1%; (second compound 10 µM, first compound 1 µM) 0.09%; (second compound 10 µM, first compound 3.16 µM) 0.1%; (second compound 10 µM, first compound 10 µM) 0.15%.

Source of the values: PubChem BioAssay AID1963870 (Molecular Pharmacology Branch, DTP, NCI, 2024).
